This is an account of results in patent US5976875A, “Diacylglycerol kinase isoforms epsilon and zeta and methods of use thereof” (priority 1997, dated 1999).

Series [1] concerns the target T1, DGK.zeta. (Homo sapiens, UniProt Q13574).
T1 construct: The DGK.zeta. cDNA was expressed in pcDNA 1/AMP (Invitrogen) in the foward orientation; expressed in transfected cells; host or cells: COS-7
As to the kind of experiment: DAG kinase assay, homogenates of DGK.zeta.-transfected COS-7 cells. The series is classed as biochemical. The following applies: for nmol phosphatidic acid/mg/h (DAG substrate specificity of DGK.zeta.): each diacylglycerol used as substrate, Table I. How it is done:
(§1) COS-7 Transfection--The DGK.zeta. cDNA was expressed in pcDNA 1/AMP (Invitrogen) in the foward orientation. Each p35 dish containing COS-7 cells at 60-80% confluence was transfected with 1 μg of plasmid DNA and 5 μl of LipofectAMINE according to manufacturer specifications (Life Technologies Inc.). The cells were harvested by washing with ice-cold Hanks' balanced salt solution (Ca^2+ - and […] -free) and were scraped into resuspension buffer (20 mM Tris-HCl, pH 7.4, 0.25 M sucrose, 1 mM EDTA, 4 mM EGTA, 1 mM dithiothreitol, 1 mM pheylmethylsulfonyl fluoride, 20 μg/ml each leupeptin, pepstain, aprotinin, and soybean trypsin inhibitor) 48 h following transfection. All homogenates were frozen on dry ice and stored at -70° C. until assayed.
(§2) DAG Kinase Assay--Cell homogenates were sonicated twice with 5 watts for 5 at 4° C. The protein concentration of each cell homogenate was measured following trichloracetic acid precipitation utilizing the BCA protein assay reagent (Pierce). Each assay contained 50 mM MOPS, pH 7.2, 100 mM NaCl, 20 mM MgCl2, 1 mM EGTA, 1 mM dithiothreitol, 2 mM 1,2-dieleoyl-an-glycerol, 3.5 mM phosphatidylserine, 75 mM octyl-β-glucopyranoside, 500 μM [γ^32 ]ATP, and 0-20 μg of cell homogenate in a volume of 200 μl. For substrate specificity experiments, various diacylglycerol species were substituted for 1,2-dioleoyl-an-glycerol. The reactions were initiated by the addition of ATP (20-30 μCi/μmol), were incubated for 10 min. At 24° C., and were terminated by the addition of 200 μl of 1% perchloric acid. Then, to each tube, we added 1.0 ml of MeOH, 1.0 ml of […], 500 μl of 1% perchloric acid, and 50 μg of phosphatidic acid, vortexed them well, and centrifuged them for 10 min at 400×g. The remaining lower phase was dried under N2 and resuspended in 100 μl of 9:1 CHCl3 /MeOH. Fifty μl of each sample were counted directly by liquid acintillation spectrometry, and the remainder was applied to a 20×20 cm Silica 60A thin layer chromatography plate (Whatman). […] The region containing phosphatidic acid (as indicated by radiolabeled standards) and the remaining areas of each lane were scraped separately, and the radioactivity was estimated by liquid scintillation spectrometry. The amount of phosphatidic acid formed per reaction was calculated as [2(direct count)(PA cpm)(total lane cpm)]×[mole ATP/cpm]. R59959 was dissolved in dimethyl sulfoxide and added to relevant enzymatic reactions just prior to the addition of ATP.

Another series has as its target T2, DGKε (Homo sapiens, UniProt P52429).
T2 construct: a PCR product of the DGKε cDNA lacking the 3'-untranslated region and part of the 5'-untranslated region was amplified; expressed in transfected cells; host or cells: COS-7
T2 sequence (P52429 1-567): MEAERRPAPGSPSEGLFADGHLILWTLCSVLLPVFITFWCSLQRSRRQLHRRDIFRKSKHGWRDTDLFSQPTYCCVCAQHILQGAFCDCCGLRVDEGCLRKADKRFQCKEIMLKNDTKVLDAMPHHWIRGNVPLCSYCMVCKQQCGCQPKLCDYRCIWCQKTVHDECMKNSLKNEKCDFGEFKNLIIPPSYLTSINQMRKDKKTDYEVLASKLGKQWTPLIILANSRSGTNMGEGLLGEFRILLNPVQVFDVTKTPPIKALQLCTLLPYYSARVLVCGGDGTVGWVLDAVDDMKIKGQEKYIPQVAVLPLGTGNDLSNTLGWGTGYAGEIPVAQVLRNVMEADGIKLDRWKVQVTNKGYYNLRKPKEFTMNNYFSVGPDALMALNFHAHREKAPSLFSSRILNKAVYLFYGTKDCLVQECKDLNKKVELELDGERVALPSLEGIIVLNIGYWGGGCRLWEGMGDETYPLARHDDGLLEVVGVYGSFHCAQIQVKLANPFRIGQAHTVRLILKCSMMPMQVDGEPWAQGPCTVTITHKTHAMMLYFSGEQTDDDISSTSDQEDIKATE
As to the kind of experiment: octyl glucoside/PS mixed-micelle assay of DGK activity, homogenates of DGKε-transfected COS-7 cells. The series is classed as biochemical. The following applies: for inhibition of DGKε activity: 100 μm inhibitor, homogenates from transfected cells. How it is done:
COS-7 Transfection and Assay of DGK Activity--COS-7 transfection was carried out using LipofectAMINE reagent (Life Technologies, Inc.), and all steps were followed by the protocol provided by the manufacturer. After 2.5 days, the cells were harvested and lysed by sonication (twice with 5 watts for 5 s at 4° C.) in the lysis buffer (0.1 ml/35 mm well) containing 20 mm Tris-HCL, pH 7.4, 0.25 m sucrose, 1 mm EDTA, 4 mm EGTA, 1 mm dithiothreitol, 1 mm phenylmethylsulfonyl fluoride, a 20 μg/ml concentration of each: leupeptin, pepstatin, aprotinin, and soybean trypsin inhibitor. Kai, M., Sakane, F., Imai, S., Wada, I., and Kanoh, H. (1994) J. Biol. Chem. 269, 18492-18498. The protein concentration of the cell homogenate was determined with the BCA protein assay reagent (Pierce). In two experiments, the homogenate was separated into soluble and membrane-bound fractions by centrifugation at 100,000×g for 60 min. (4° C.). The pellet was resuspended in lysis buffer, and both fractions were assayed for DGK activity.
Since the full-length cDNA of DGKε could not be expressed in COS-7 cells, a PCR product of the DGKε cDNA lacking the 3'-untranslated region and part of the 5'-untranslated region was amplified and cloned into pcDNA/Neo (Invitrogen). The forward primer (SEQ ID NO: 10):
The octyl glucoside/PS mixed-micelle assay of DGK activity was performed as described. Walsh, J. P., Suen, R., Lemaitre, R. N., and Glomset, J. A. (1994) J. Biol. Chem. 269, 21155-21164. In brief, the assay mixture contained 50 mm MOPS, pH 7.2, 100 mm NaCl, 20 mm MgCl2, 1 mm EGTA, 1 mm dithoiothreitol, 2 mm discylglycerol, 3.5 mm phosphatidylserine, 75 mm octyl-β-glucopyranoside, 500 μm [γ-^32 P] ATP, and 20 μg of cellular protein in a volume of 200 μl. The reaction was initiated by the addition of [γ-^32 P] ATP (20-30 μCi/μmol) and processed for 10 min at 24° C. […] The amount of phosphatidic acid formed per reaction was calculated by dividing the radioactivity in phosphatidic acid by the specific radioactivity of the ATP in the reaction.

The subject of series [2] is DGK.zeta. Kind of series: DAG kinase assay, homogenates of DGK.zeta.-transfected COS-7 cells. It counts as biochemical, human. How it is done: as §1, §2
Series [3] relates to protein kinase M (PKM), catalytic fragment of mixed rat brain PKC isozymes. Kind of series: Phosphorylation of peptides by PKM (kinetics). The conditions noted are these: for Km: 10 minute reaction, 30° C., read-out: Km as substrate for PKM. It counts as biochemical. How it is done:
Phosphorylation of peptides and proteins--Peptides were phosphorylated by the purified catalytic fragment of mixed rat brain PKC isozymes (protein kinase M; PKM). In all cases involving kinetic measurements, the peptides were phosphorylated by PKM (1:120 dilution of frozen stock solution) at 30° C. All reactions were performed in the linear range of peptide phosphorylation, in an assay mixture containing 40 mM Hepes (pH 7.4), 0.25 mM EGTA, 12.5 mM MgCl2, 75 μM y-[^32 P]ATP, and various concentrations of peptides. In the peptide experiments, the reactions were stopped after 10 minutes by the addition of 1/5 vol of 5×SDS sample buffer, boiled for 5 minutes and then subjected to electrophoresis on 20% acrylamide gels. After the gels were dried, the phosphorylated peptides were localized by autoradiography, excised from the gel, and subjected to Cerenkov scintillation counting.

Read-outs that look alike come from different tables or passages of the source.

T1 sequence (Q13574 whole entry): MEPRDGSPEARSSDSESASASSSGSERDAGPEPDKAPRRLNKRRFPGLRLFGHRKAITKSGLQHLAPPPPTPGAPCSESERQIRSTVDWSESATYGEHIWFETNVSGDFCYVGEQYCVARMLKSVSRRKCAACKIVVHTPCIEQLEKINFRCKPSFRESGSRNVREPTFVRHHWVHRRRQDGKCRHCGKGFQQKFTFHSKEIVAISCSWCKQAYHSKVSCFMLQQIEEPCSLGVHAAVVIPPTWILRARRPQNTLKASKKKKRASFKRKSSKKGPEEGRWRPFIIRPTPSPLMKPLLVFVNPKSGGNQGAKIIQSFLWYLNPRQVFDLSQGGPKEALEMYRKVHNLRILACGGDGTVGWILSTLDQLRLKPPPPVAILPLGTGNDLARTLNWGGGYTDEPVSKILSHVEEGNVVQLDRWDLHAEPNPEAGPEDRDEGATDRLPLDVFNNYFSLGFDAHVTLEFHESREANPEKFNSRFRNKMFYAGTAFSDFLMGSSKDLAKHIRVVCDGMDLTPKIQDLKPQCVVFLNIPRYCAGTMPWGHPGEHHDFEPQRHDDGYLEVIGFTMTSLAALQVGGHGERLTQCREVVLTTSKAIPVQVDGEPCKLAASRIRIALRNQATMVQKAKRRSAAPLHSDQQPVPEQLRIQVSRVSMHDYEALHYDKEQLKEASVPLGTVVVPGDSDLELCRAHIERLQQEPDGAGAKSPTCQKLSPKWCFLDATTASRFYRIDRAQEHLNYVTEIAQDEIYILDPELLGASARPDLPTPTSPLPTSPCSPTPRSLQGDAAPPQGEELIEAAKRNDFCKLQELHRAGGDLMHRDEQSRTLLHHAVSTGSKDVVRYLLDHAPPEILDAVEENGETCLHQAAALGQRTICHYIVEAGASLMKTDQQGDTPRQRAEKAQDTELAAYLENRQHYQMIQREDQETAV

For the molecule `CCCCCCCCCC(=O)OC[C@H](CO)OC(=O)CCCCCCCCC` [1,2-Dicapryl-sn-glycerol], at DGK.zeta. [1], the “nmol phosphatidic acid/mg/h (DAG substrate specificity of DGK.zeta.)” value (from here on “nmol phosphatidic acid/mg/h”) is reported as 1440 ± 42 nmol phosphatidic acid/mg/h.

In the case of `CCCCCCCC/C=C\CCCCCCCC(=O)OC[C@H](CO)OC(=O)CCCCCCC/C=C\CCCCCCCC` [1,2-Dioleoyl-sn-glycerol], the “nmol phosphatidic acid/mg/h” value at DGK.zeta. [1] is reported as 1021 ± 9 nmol phosphatidic acid/mg/h.

With `CCCCCCCC/C=C\CCCCCCCC(=O)OCC(O)COC(=O)CCCCCCC/C=C\CCCCCCCC` [1,3-Dioleoyl-sn-glycerol], the “nmol phosphatidic acid/mg/h” value on DGK.zeta. [1] is on record as 110 ± 8 nmol phosphatidic acid/mg/h.

For the molecule `CCCCCCCC/C=C\CCCCCCCC(=O)OC[C@H](CO)OC(=O)CCCCCCCCCCCCCCC` [1-Oleoyl-2-palmitoyl-sn-glycerol], the “nmol phosphatidic acid/mg/h” value at DGK.zeta. [1] was 856 ± 35 nmol phosphatidic acid/mg/h.

Take `CCCCCCCC/C=C\CCCCCCCC(=O)O[C@@H](CO)COC(=O)CCCCCCCCCCCCCCC` [1-Palmitoyl-2-oleoyl-sn-glycerol]: the “nmol phosphatidic acid/mg/h” value at DGK.zeta. [1] is listed as 805 ± 8 nmol phosphatidic acid/mg/h.

Regarding `CCCCC/C=C\C/C=C\C/C=C\C/C=C\CCCC(=O)O[C@@H](CO)COC(=O)CCCCCCCCCCCCCCCCC` [1-Stearoyl-2-arachidonyl-sn-glycerol], the “nmol phosphatidic acid/mg/h” value on DGK.zeta. [1] is 1106 ± 34 nmol phosphatidic acid/mg/h.

With `CCCCCCCC/C=C\CCCCCCCC(=O)O[C@@H](CO)COC(=O)CCCCCCCCCCCCCCCCC` [1-Stearoyl-2-oleoyl-sn-glycerol], the “nmol phosphatidic acid/mg/h” value on DGK.zeta. [1] is 801 ± 13 nmol phosphatidic acid/mg/h.

In the case of `Cc1nc2sccn2c(=O)c1CCN1CCC(=C(c2ccccc2)c2ccc(F)cc2)CC1` [R59022], the “inhibition of DGKε activity” value against DGKε was “approximately 11%”.

Consider `O=c1c2ccccc2[nH]c(=S)n1CCN1CCC(=C(c2ccc(F)cc2)c2ccc(F)cc2)CC1` [R59949], for which the activity at 100 µM on DGK.zeta. [1] (100 μm R59949, read-out: DGK.zeta. activity in presence of inhibitor) stood at 94%. Besides, on DGK.zeta. [1] (summary statement), the “DAG kinase activity of DGK.zeta.-transfected cells in presence of inhibitor” value was “not altered”. In addition, the “inhibition of DGKε activity” value against DGKε is roughly 41%.

On to `[Ca+2]` [calcium], for which, at DGK.zeta. [1] (0.1-2 mm calcium added at start of reaction), the “effect of excess calcium on DGK.zeta. activity” value is listed as “no increase in activity”.

Turning to “DGK.zeta.: human diacylglycerol kinase zeta, 928-amino acid protein (SEQ ID NO: 4)”, in the series with DGK.zeta. [1] (1,2-dicapryl-sn-glycerol substrate, typical experiment, FIG. 21), the DGK activity came to 7.5 nmol/mg/min. For the same molecule, the “increase in DGK activity compared to vector-transfected cells” value in the series with DGK.zeta. [1] (1,2-dioleoyl-sn-glycerol substrate, FIG. 7) turned out to be 267 fold. In the series with DGK.zeta. [2] (native vs ankyrin repeat-deleted (FLAG-tagged) DGK.zeta.), this molecule registered a catalytic activity of 1764 nmol PA/mg/hr. In the series with DGK.zeta. [2] (native vs zinc finger deletion mutants, Table II), this molecule showed a DGK.zeta. activity of 243 nmol PA/mg/hr. Further, the Relative activity with DGK.zeta. [2] (relative to native DGK.zeta. = 100, Table II) turned out to be 100.

As a reminder, the Km is the substrate concentration at which the rate is half of its maximum. For “KASKKKKRASFKRKSSKK [DGK peptide, 18 amino acid peptide corresponding to residues 256-273 of DGK.zeta]”, the Km in series [3] (listed as native peptide) is roughly 0.5 µM; in series [3], 0.5 µM. In series [3] (phosphorylation by PKM), this molecule showed a Hill constant of 0.7.

Take phosphatidylserine: on DGKε (additional 3.5 mm phosphatidylserine added to reaction mixture), the “effect of increased phosphatidylserine concentration on DGKε activity” value was “only slightly increased”.
